Patent US10898539B2, “Process for the synchronization of ovulation for timed breeding without heat detection” (priority 2003, dated 2021)

Experiments:
Format in all cases: in vivo, swine
postpartum sows [1] = experiment: Single timed injection 96 hours post-weaning and single timed insemination without estrus detection in postpartum sows (Example 3); conditions: 50 mcg at 96 hours post-weaning
Protocol: (§1) Approximately 170 postpartum sows were randomly divided into two equal groups comprised of controls and treated. Following weaning, the controls were detected for estrus and bred following the normal standard operating procedures for the farms on which they resided. The treated sows received a 50 mcg dose of deslorelin in SAIB at 96 hours post-weaning and were bred with a single insemination 28+/−2 hours later with no regard to estrus detection. The sows were examined for pregnancy by ultrasound at 21 days and slaughtered around 28 days post breeding. The entire reproductive tract was removed and corpora lutea and embryos were counted.

postpartum sows [2] = experiment: Litter size after deslorelin treatment in postpartum sows at three farm sites (Example 4)
From the text: Postpartum sows were randomly distributed into three different groups comprised of Controls, Treatment 1, and Treatment 2, with the exception of Site 3, which was divided into two groups, Control and Treatment 2. Control sows were detected for estrus following weaning, and bred following the normal standard operating procedures for the farms on which they resided. Treatment 1 sows were detected for estrus following weaning, and received a 50 mcg dose of deslorelin in the morning when standing and were bred by AI 4 hours later and again at 24+/−2 hours later. Treatment 2 sows received a 50 mcg dose of deslorelin in SAIB at 96 or 120 hours post-weaning and were bred with a single insemination 28+/−2 hours later with no regard to estrus detection.

postpartum sows [3] = experiment: Pregnancy rate after deslorelin treatment in sows, summary of Tables 2-5
Protocol: as §1, with “counted. Postpartum sows were randomly distributed into three different groups comprised of Controls, Treatment 1, and Treatment 2, with the exception of Site 3, which was divided into two groups, Control and Treatment 2. Control sows were detected for estrus following weaning, and bred following the normal standard operating procedures for the farms on which they resided. Treatment 1 sows were detected for estrus following weaning, and received a 50 mcg dose of deslorelin in the morning when standing and were bred by AI 4 hours later and again at 24+/−2 hours later. Treatment 2 sows received a 50 mcg dose of deslorelin in SAIB at 96 or 120 hours post-weaning and were bred with a single insemination 28+/−2 hours later with no regard to estrus detection. […]” for “counted.”

mature postpartum sows = experiment: Intravulvar injection at estrus detection in mature postpartum sows, AI breeding (Example 2)
Protocol: Sows were assigned randomly in blocks of two to either control or to be injected intravulvar with 50 mcg of deslorelin in SAIB at the time of estrus detection for sows first detected in estrus in the a.m. and 12 hours later for those first detected in estrus in the p.m. Treated animals were bred AI upon detected estrus and again 24 hours later if still in estrus. Controls received a saline injection on first detected estrus behavior estrus detection and were bred according to the farm's normal procedures.

[4] = slaughtered around 28 days post breeding
[5] = Site 1, Treatment 1: 50 mcg when standing in estrus, AI 4 hours later and again at 24+/-2 hours
[6] = Site 1, Treatment 2: 50 mcg in SAIB at 96 or 120 hours post-weaning, single insemination 28+/-2 hours later, no estrus detection
[7] = Site 2, Treatment 1: 50 mcg when standing in estrus, AI 4 hours later and again at 24+/-2 hours
[8] = Site 2, Treatment 2: 50 mcg in SAIB at 96 or 120 hours post-weaning, single insemination 28+/-2 hours later, no estrus detection
[9] = Site 3, Treatment 2: 50 mcg in SAIB at 96 or 120 hours post-weaning, single insemination 28+/-2 hours later, no estrus detection
[10] = 50 μg intravulvar at first estrus detection, AI, AI again if in estrus next day

CCNC(=O)[C@@H]1CCCN1C(=O)[C@H](CCCN=C(N)N)NC(=O)[C@H](CC(C)C)NC(=O)[C@@H](Cc1c[nH]c2ccccc12)NC(=O)[C@H](Cc1ccc(O)cc1)NC(=O)[C@H](CO)NC(=O)[C@H](Cc1c[nH]c2ccccc12)NC(=O)[C@H](Cc1cnc[nH]1)NC(=O)[C@@H]1CCC(=O)N1 [Deslorelin, deslorelin]
Pregnancy Rate (postpartum sows [1]; single insemination 28+/-2 hours later, no estrus detection): 71% | Sows Pregnant (postpartum sows [1]; single insemination 28+/-2 hours later, 84 sows in group): 60 | Embryo Survival (postpartum sows [1]; [4]): 64% | Live Embryos (postpartum sows [1]; [4]): 13.4 | Avg. Total Live Pigs (postpartum sows [2]; [5]): 11.03 | Avg. Total Pigs Born (postpartum sows [2]; [5]): 12.10 | Avg. Total Live Pigs (postpartum sows [2]; [6]): 11.24 | Avg. Total Pigs Born (postpartum sows [2]; [6]): 12.37 | Avg. Total Live Pigs (postpartum sows [2]; [7]): 10.25 | Avg. Total Pigs Born (postpartum sows [2]; [7]): 11.21 | Avg. Total Live Pigs (postpartum sows [2]; [8]): 10.02 | Avg. Total Pigs Born (postpartum sows [2]; [8]): 10.88 | Avg. Total Live Pigs (postpartum sows [2]; [9]): 10.27 | Avg. Total Pigs Born (postpartum sows [2]; [9]): 11.09 | litter sizes (in words) (postpartum sows [2]; Tables 3-5, regardless of estrus detection): normal litter sizes | pregnancy rates (in words) (postpartum sows [3]; Table 6): normal pregnancy rates | Number Pregnant (postpartum sows [3]; Treatment 2 (timed injection, single timed insemination), 250 sows in group, data of Tables 2-5 summarized): 177 | % Pregnant (postpartum sows [3]; Treatment 2 (timed injection, single timed insemination), data of Tables 2-5 summarized): 70.80% | Length of Estrus (mature postpartum sows; [10]): 40.81 (n = 69) Hrs. | Pregnancy Rate (mature postpartum sows; [10]): 91% (n = 75) | pregnancy rates, Control versus Treated groups (in words) (mature postpartum sows; 50 mcg intravulvar at estrus detection): no significant difference
